We go through one compound from publication PMC4445471, “Piezo1 ion channel pore properties are dictated by C-terminal region” (Nature Communications, 2015).

Holding throughout (assay): whole-cell patch clamp, mechanically activated current block
Holding throughout (type): cell-based
A general note: The patch-clamp technique gives a direct electrical read-out from membranes.

The target of assay [1] is T1, mPiezo1 (Mus musculus, UniProt E2JF22, E2133D).
T1 construct: gene Piezo1; full length, 2547 residues, IRES-EGFP pcDNA3.1(-) vector, transfected HEK293T
The note with it: -80 mV; extracellular RR; pH 7.3; room temperature.

Assay [2] concerns the target T2, mPiezo1 (Mus musculus, UniProt E2JF22).
T2 construct: gene Piezo1; full length, 2547 residues, IRES-EGFP pcDNA3.1(-) vector, transfected HEK293T
The note with it: -80 mV; extracellular RR; pH 7.3; room temperature; voltage-dependent pore block.

In assay [3] the target is T3, mPiezo1 (Mus musculus, UniProt E2JF22, E2133Q).
T3 construct: gene Piezo1; full length, 2547 residues, IRES-EGFP pcDNA3.1(-) vector, transfected HEK293T
The following applies: -80 mV; extracellular RR; pH 7.3; room temperature.

Assay [4] has as its target T4, mPiezo2 (Mus musculus, UniProt Q8CD54).
T4 construct: gene Piezo2; full length, pCMV-Sport6 vector (printed for the E2416K mutant), transfected HEK293T
The note with it: -80 mV; extracellular RR; pH 7.3; room temperature.

For assay [5], the target named is T5, mPiezo2 (Mus musculus, UniProt Q8CD54, E2416K).
T5 construct: gene Piezo2; full length, pCMV-Sport6 vector (printed for the E2416K mutant), transfected HEK293T
The following applies: -80 mV; extracellular RR; pH 7.3; room temperature.

In assay [6] the target is T6, mPiezo1 (Mus musculus, UniProt E2JF22, E2133K).
T6 construct: gene Piezo1; full length, 2547 residues, IRES-EGFP pcDNA3.1(-) vector, transfected HEK293T
The following applies: -80 mV; extracellular RR; pH 7.3; room temperature.

T1 sequence (E2JF22 whole entry E2133D): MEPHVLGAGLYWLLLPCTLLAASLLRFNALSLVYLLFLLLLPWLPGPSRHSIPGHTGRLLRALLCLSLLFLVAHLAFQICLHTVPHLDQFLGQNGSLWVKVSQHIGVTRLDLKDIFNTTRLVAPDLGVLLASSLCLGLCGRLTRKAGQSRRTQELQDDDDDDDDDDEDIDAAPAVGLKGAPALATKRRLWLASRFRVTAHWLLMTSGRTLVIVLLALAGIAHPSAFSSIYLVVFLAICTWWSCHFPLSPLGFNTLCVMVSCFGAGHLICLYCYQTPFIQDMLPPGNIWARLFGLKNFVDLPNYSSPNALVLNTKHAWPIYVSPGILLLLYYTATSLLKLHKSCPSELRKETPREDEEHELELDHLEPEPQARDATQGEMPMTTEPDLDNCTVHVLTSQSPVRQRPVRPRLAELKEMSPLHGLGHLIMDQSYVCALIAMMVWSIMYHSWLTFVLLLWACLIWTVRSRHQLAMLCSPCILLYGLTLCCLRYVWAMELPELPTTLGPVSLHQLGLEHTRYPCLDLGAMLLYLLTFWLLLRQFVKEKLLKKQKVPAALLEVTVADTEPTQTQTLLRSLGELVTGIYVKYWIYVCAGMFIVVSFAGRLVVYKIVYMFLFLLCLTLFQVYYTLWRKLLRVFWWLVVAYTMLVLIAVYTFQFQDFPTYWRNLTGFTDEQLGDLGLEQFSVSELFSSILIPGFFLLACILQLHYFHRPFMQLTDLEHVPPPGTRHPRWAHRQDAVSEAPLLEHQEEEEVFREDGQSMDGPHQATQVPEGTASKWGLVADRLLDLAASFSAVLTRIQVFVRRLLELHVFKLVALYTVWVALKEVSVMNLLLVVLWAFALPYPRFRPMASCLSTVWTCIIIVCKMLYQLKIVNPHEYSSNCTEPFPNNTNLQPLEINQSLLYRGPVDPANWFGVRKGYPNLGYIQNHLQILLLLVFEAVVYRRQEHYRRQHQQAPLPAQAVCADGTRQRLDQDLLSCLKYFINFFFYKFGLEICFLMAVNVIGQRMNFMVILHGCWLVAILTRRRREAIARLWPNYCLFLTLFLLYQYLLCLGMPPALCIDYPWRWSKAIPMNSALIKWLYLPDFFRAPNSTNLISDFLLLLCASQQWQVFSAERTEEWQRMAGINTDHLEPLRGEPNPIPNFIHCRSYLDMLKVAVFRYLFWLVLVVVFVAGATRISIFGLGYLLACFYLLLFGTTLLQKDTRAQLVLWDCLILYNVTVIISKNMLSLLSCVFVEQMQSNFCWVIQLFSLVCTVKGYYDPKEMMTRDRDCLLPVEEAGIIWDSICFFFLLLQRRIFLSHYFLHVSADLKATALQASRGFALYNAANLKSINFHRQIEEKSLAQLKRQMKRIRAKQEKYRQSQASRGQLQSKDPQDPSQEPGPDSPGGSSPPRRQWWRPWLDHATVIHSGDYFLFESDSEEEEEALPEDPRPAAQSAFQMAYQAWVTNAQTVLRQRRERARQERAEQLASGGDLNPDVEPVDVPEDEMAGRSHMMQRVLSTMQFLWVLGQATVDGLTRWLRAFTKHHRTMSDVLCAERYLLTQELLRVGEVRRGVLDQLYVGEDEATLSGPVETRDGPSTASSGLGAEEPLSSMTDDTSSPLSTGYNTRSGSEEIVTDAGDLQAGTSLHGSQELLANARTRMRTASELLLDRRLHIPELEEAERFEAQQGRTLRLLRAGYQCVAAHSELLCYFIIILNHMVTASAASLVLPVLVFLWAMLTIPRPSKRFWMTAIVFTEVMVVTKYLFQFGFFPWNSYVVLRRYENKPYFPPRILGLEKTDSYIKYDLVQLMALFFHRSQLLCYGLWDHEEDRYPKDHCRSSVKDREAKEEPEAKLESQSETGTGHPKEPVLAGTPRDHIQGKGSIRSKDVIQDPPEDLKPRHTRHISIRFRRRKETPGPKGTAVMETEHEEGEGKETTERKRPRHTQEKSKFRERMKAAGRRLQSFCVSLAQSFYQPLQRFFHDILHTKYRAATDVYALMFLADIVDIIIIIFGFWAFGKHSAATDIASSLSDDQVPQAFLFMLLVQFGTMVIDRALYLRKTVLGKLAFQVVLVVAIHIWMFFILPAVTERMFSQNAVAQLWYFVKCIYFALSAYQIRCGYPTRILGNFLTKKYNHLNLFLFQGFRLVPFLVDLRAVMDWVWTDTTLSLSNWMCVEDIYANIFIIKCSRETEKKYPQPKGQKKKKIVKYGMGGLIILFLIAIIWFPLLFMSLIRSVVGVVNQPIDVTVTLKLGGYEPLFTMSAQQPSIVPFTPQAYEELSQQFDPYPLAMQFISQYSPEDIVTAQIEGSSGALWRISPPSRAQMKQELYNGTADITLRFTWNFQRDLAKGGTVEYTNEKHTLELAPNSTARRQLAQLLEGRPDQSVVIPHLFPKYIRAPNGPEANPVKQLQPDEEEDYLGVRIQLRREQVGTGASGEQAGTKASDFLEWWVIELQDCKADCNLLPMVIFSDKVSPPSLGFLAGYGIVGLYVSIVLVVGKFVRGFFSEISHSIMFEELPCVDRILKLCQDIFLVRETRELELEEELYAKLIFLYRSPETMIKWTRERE
T3 sequence (E2JF22 whole entry E2133Q): as the sequence (E2JF22 whole entry E2133D) above, with D2133Q counted along it
T2 sequence (E2JF22 whole entry): as the sequence (E2JF22 whole entry E2133D) above, with D2133E counted along it
T6 sequence (E2JF22 whole entry E2133K): as the sequence (E2JF22 whole entry E2133D) above, with D2133K counted along it

Broadly, the IC50 is the concentration at which inhibition is half-maximal. High values mean weaker potency, low ones greater potency. Regarding `N.N.N.N.N.N.N.N.N.N.N.N.N.N.[Cl-].[Cl-].[Cl-].[Cl-].[Cl-].[Cl-].[O-2].[O-2].[Ru+3].[Ru+3].[Ru+4]` [ruthenium red], the IC50 was 1260 ± 280 nM against mPiezo1 [1], 4.71 ± 0.83 µM against mPiezo1 [2] and 5.62 ± 1.27 µM against mPiezo1 [3]. Further, the “% block at 30 μM” value is reported as 70.8±1.4% on mPiezo2 [4], 49.6±4.6% at mPiezo2 [5] and 8.1±7.1% on mPiezo1 [6].
